Experimental data: US20240366550A1, “Drug for Treating Prostatitis or Benign Prostatic Hyperplasia (BPH)” (Beijing University of Chemical Technology, priority 2021, published 2024)
Read-outs that look alike come from different tables or passages of the source.

Tests used:
in vivo = conditions: po
[1] = tested on: chronic bacterial prostatitis (type-II prostatitis patients)
Experimental: (§1) General information: this group of patients included 117 cases, aged 18 to 52 years old, with an average age of 34.5 years, and their disease duration ranged from 2 months to 5 years.
(§2) Treatment method: 10 mg of SFA per day for 4 to 6 weeks.
Criteria for determining efficacy: the patients were scored according to the Chronic Prostatitis Score (NIH2CPSI) of the National Institutes of Health (NIH); the efficacy was determined based on the patient's symptoms, routine examination results of prostate fluid obtained by massage, and VB3 and EPS bacterial culture results obtained by the Meares-Stamey four-cup test.

clinical = conditions: male, human, po, 10 mg
Experimental: The drug concentration of SFA in vivo was determined in 9 cases of the 115 patients: the patients took 10 mg of SFA orally every day for 3 consecutive days.

prostatic hyperplasia = conditions: of 55 subjects in total
Experimental: as §1, §2

[2] = number of patients relieved/total number of patients
[3] = of the remaining 95 cases taking the drug for 6 weeks

## C[S+]([O-])CCCCN=C=S (centres unmarked) [SFA, Sulforaphane]
In vivo
  bioavailability: 90%
[1]; 12 patients infected with Escherichia coli, 11 with Streptococcus agalactiae, 8 with Streptococcus faecalis
  total effective rate: 10000
[1]; 115 patients, 4 to 6 weeks
  total effective rate: 88.7%
[1]; after treatment, 10 mg SFA per day for 4 to 6 weeks, before treatment 6.8 ± 1.1, P<0.01
  Urination symptom score: 3.2 ± 1.1
[1]; after treatment, 10 mg SFA per day for 4 to 6 weeks, before treatment 15.2 ± 4.6, P<0.01
  Quality of life score: 7.5 ± 1.3
[1]; after treatment, 10 mg SFA per day for 4 to 6 weeks, before treatment 15.3 ± 2.6, P<0.01
  Pain and discomfort score: 10.3 ± 3.2
[1]; after treatment, 10 mg SFA per day for 4 to 6 weeks, before treatment 35.2 ± 3.3, P<0.01
  NIH-CPSI score: 20.1 ± 5.6
[1]; after treatment, before treatment 0
  White blood cells in prostatic fluid obtained by massage: Negative: 32 number of people
[1]; after treatment, before treatment 14
  White blood cells in prostatic fluid obtained by massage: ++++: 4 number of people
[1]; after treatment, before treatment 28
  White blood cells in prostatic fluid obtained by massage: +++: 9 number of people
[1]; after treatment, before treatment 31
  White blood cells in prostatic fluid obtained by massage: +: 49 number of people
[1]; after treatment, before treatment 44
  White blood cells in prostatic fluid obtained by massage: ++: 21 number of people
[1]; [2]
  Relieving rate, distending pain and discomfort in the suprapubic region: 82.9%
  Relieving rate, ejaculation pain: 81.2%
  Relieving rate, feeling of incomplete urination: 67.1%
  Relieving rate, frequent urination: 80.2%
  Relieving rate, labored urination: 72.6%
  Relieving rate, penis pain: 77.3%
  Relieving rate, perineum pain: 69.5%
  Relieving rate, urgent urination: 81.3%
  Relieving rate, white urine: 91.2%
[1]; of 115 patients who completed treatment, 10 mg per day
  cases cured within 4 weeks of taking the drug: 20 cases
[1]; [3]
  cases cured: 15 cases
  cases effective: 23 cases
  cases ineffective: 13 cases
  cases markedly effective: 44 cases
clinical; blood
  concentration at 6 h: 50.6 to 182 ng/mL
clinical; prostatic fluid obtained by massage
  concentration at 6 h: 13.5 to 22.8 ng/mL
clinical; semen
  concentration at 6 h: 2.6 to 5.5 ng/mL
Prostatic hyperplasia
  Number of subjects, prostatic hyperplasia: Cured: 52
  Number of subjects, prostatic hyperplasia: Effective: 2
  Number of subjects, prostatic hyperplasia: Ineffective: 1
